Results taken from patent US9872824B2, “Semi-permanent hair straightening composition and method” (Lubrizol Advanced Materials, Inc., priority 2013, dated 2018).

Assays:
[1] = Solution dipping, flat-iron thermal straightening, imaging analysis of tress length and width; set-up: species or system human; conditions: for Ranking for semi-permanent thermal straightening efficiency: from imaging analysis data; for Comparative straightening behaviour in words: imaging analysis data
Description: (§1) This method is used primarily to screen and select candidate molecules as possible thermally-activated agents. Typically, a solution of the candidate molecule is prepared in a suitable solvent system. The hair-tress is immersed completely in the solution with controlled concentration of candidate thermally-activated agent, pH, temperature and soaking time, such as for up to 60 minutes. Then, the hair-tress is removed from the solution, excess amount of material squeezed out, and the tress is blow-dried to at least 95% dryness before thermal straightening.
2. Image Analysis: the method can be used to quantify the curly hair-tress thermal straightening efficiency for different treatments. Measurements of tress length and width at half-length can be made with this method.
As for other tests, a curly hair-tress was completely immersed in an aqueous solution of a selected one of the small molecules and soaked for 45 minutes. Each solution contained an equimolar amount of the selected small molecule. The hair-tress was then removed from the solution, excess water was squeezed out manually, and the hair dried by a blower dryer to the desired dryness before thermal straightening, as described above.
The imaging analysis method was used to measure the total length and width of the hair-tress before and after the thermal straightening process, and after each shampoo-wash-cycle. More specifically, photographs of hair tresses or bundles of hair tresses were taken against a solid color background with a tripod-mounted digital camera. Illumination was selected to minimize shadows which could affect measurements. The tress was hung from a spindle that enabled the tress to be rotated 90 degrees so that pictures could be taken from four different angles, providing a full view of the tress, with a ruler mounted close to the tress as a scale.
The National Institutes for Health's Image J software program was used for image processing and analysis. […] The curly hair-tress has a contour length of 20 cm, and the top glued part is 2.0 cm wide and is about 0.4 cm of length. Therefore, the effective hair-tress contour length is 19.6 cm.

[2] = Solution-dipping screening, flat-iron straightening, shampoo-wash-fastness; set-up: species or system human; conditions: used alone under the same conditions
Description: as §1
The shampoo-wash-fastness is carried out by applying shampoo (VO5 or Suave shampoo) on the hair-tress which is massaged for 30 seconds followed by rinsing for 60 seconds with running warm water (32-35° C.). The washed hair-tress is then dried at 23° C. and 50% RH. Consecutive shampoo-wash-cycles are carried out without the drying step.
In the following initial screening test, the examination of thermally straightened hair-tresses is performed by visually examining a tress which has been treated in a solution containing up to 30 wt. % of a candidate thermally-activated agent for 45 minutes, flat-ironed at 210° C. (10×12 seconds). After three consecutive wash cycles, if the dried hair-tress (23° C. and 50% RH) becomes curly, this material is considered not effective, i.e. not worth a further evaluation in a cream formulation.

[3] = Solubility in water at room temperature; format: physicochemical; conditions: room temperature (25° C.)
[4] = average over 1-24 shampoos after thermal treatment
[5] = thermally-treated tress, equimolar aqueous solution, 45 min soak
[6] = thermally-treated tress, width at half-length

SMILES	Front: Width1/2 [1, 4] [cm]	Lengthmax [1, 4] [cm]	Side: Width1/2 [1, 4] [cm]	Ranking for semi-permanent thermal straightening efficiency [1]	Comparative straightening behaviour in words [1]	Lengthmax [1, 5] [cm]	Front: Width1/2 [1, 6] [cm]	Side: Width1/2 [1, 6] [cm]	Straightening effectiveness relative to ethylene carbonate [2]	Solubility in water [3]
O=C1NCCO1 [O, 2-oxazolidinone]	3.9 ± 0.2	18.4 ± 0.1	2.7 ± 0.2	GA≈EC≈F≧TC>O>EU>U	gives better straightening results than urea (U) and ethylene urea (EU)	19.3	3.3	1.7		
O=C1NCCN1 [EU, Ethylene Urea]	4.1 ± 0.2	18.2 ± 0.2	2.6 ± 0.1	GA≈EC≈F≧TC>O>EU>U	relax the curly hair-tress to some degree	19.4	3.2	1.6		
O=C1OCC(CO)O1 (centres unmarked) [GC, glycerol carbonate]									less effective	
CC1COC(=O)O1 (centres unmarked) [PC, propylene carbonate]									less effective	up to 20 wt. %
O=C1OCCO1 [EC, ethylene carbonate]	2.6 ± 0.1	19.4 ± 0.1	1.5 ± 0.1		behave similarly to formaldehyde (F) and glyoxylic acid (GA)	19.4	3.6	0.9		
NC(N)=O [U, Urea]	5.8 ± 0.2	18.2 ± 0.2	4.0 ± 0.4	GA≈EC≈F≧TC>O>EU>U	relax the curly hair-tress to some degree	19.6	3.6	2.0		
O=CC(=O)O [GA, Glyoxylic Acid]	2.5 ± 0.5	19.2 ± 0.3	1.4 ± 0.2	GA≈EC≈F≧TC>O>EU>U		19.5	2.8	1.2		
